Drawing on patent US6277364A, “Polyurethanes as topical skin protectants” (Bertek Pharmaceuticals, Inc., priority 1998, dated 2001), this text covers solubility and localization in skin for two molecules.

Series [1] in a line: physchem. The following applies: water.
The conditions of series [2]: in vivo.
From the text: In this example, the FTIR-ATR technique was used to assess the presence and amount of polyolprepolymer-2 ("PP-2") in the stratum corneum of two human subjects, in vivo.
The test solution contained 10 wt % PP-2 dissolved in ethanol/water (60:40 v/v). the control solution consisted only of ethanol/water (60:40 v/v). Webtril™ pads (12cm×2.5cm) were saturated either with test or control solution and were applied to the left and right forearms of two subjects, respectively. The pads were secured in place with Tegaderm 1626™ occlusive transparent dressing during the entire 3 hour exposure period. The skin surface of the dosing sites was lightly wiped with two cotton-tipped swabs following the exposure period. A total of 8 tape strippings were performed: 6 were done immediately and 2 were done 2 hours later. […]
FTIR spectra of the stratum comeum was measured from the dosing site and compared with the FTIR spectra of PP-2. The ratio of PP-2 absorption at 1095 cm^-1 to stratum corneum absorption at 675 cm^-1 (R 1095/675) was determined to account for potential differences in degree of contact between the sample (forearm) and the ATR crystal. […]
The absorbance ratio, R 1095/675, of PP-2 was determined. The quantity εb was computed, based upon the known surface concentration of PP-2 and using Beer's Law (A=εbC). […]

Converted amounts (≈) assume the structure as drawn.

As to `O=c1[nH]cc(F)c(=O)[nH]1` [5-FU, 5-fluorouracil], in series [1], the solubility stood at 10.2 mg/mL (≈ 78.4 mM).

On to “poly[oxy(methyl-1,2-ethanediyl)], α-hydro-ω-hydroxy-, polymer with 1,1'-methylene-bis-[4-isocyanatocyclohexane] [PP-2]”, for which the localization in skin entry in series [2] is “localized in the stratum corneum”.

For orientation: solubility means the dissolved amount per volume that the medium holds.
